{
  "source": "patent US20260199309A1",
  "about": "“COMPOUNDS FOR THE TREATMENT OF CENTRA NERVOUS SYSTEM DISORDERS” (Autifony Therapeutics Limited, priority 2022, published 2026)",
  "key": {"[1]": {"molecular_target": "CYP1A2 (Homo sapiens, UniProt P05177)", "sequence (P05177 whole entry)": "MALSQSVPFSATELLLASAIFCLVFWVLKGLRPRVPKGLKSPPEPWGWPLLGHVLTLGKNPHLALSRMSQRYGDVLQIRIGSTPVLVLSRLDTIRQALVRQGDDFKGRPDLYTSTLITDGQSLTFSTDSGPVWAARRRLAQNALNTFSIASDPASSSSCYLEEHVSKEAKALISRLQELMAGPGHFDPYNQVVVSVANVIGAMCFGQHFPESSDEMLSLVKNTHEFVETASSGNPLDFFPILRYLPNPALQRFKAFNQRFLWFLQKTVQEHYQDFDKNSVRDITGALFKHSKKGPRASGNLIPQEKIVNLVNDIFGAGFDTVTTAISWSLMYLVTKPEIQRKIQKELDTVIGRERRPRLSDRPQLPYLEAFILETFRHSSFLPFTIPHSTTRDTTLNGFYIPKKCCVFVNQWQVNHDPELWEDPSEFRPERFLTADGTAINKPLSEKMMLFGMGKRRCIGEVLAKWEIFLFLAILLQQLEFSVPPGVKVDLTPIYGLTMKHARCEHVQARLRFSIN", "assay": "CYP450 inhibition, pro-fluorescent probe substrate (1A2/ER)"}, "[2]": {"molecular_target": "CYP2C19 (Homo sapiens, UniProt P33261)", "sequence (P33261 whole entry)": "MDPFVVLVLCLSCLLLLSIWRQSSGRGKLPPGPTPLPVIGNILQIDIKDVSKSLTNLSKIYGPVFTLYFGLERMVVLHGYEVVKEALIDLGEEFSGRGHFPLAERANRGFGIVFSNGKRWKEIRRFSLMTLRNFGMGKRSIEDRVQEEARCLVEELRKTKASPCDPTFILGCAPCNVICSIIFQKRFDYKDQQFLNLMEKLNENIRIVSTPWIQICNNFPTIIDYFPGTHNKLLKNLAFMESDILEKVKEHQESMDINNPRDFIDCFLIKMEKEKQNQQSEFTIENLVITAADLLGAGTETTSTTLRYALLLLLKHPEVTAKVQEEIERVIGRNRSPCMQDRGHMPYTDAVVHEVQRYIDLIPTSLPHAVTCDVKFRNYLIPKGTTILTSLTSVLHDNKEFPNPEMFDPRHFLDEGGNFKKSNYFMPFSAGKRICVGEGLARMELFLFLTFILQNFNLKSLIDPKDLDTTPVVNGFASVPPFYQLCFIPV", "assay": "CYP450 inhibition, pro-fluorescent probe substrate (2C19/BMC)", "format": "in vitro ADME", "settings": "recombinant human CYP450, substrate BMC; top concentration 5.00E-05"}, "[3]": {"molecular_target": "CYP2D6 (Homo sapiens, UniProt P10635)", "sequence (P10635 whole entry)": "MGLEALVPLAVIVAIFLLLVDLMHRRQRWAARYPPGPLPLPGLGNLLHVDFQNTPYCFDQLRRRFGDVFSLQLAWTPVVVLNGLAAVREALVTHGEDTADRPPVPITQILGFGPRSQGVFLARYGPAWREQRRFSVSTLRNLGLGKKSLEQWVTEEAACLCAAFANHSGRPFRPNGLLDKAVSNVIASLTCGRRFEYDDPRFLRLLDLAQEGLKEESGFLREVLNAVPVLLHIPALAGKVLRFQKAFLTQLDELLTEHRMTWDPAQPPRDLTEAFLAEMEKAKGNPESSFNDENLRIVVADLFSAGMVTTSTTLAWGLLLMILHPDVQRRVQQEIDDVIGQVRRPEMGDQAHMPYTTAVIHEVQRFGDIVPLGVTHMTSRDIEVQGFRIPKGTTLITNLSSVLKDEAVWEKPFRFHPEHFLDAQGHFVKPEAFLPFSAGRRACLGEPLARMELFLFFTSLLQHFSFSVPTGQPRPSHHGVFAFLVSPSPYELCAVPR", "assay": "CYP450 inhibition, pro-fluorescent probe substrate (2D6/MMMC)", "format": "in vitro ADME", "settings": "recombinant human CYP450, substrate MMMC; top concentration 5.00E-05"}, "[4]": {"molecular_target": "T1, CYP3A4 (Homo sapiens, UniProt P08684)", "T1 construct": "purchased", "T1 sequence (P08684 whole entry)": "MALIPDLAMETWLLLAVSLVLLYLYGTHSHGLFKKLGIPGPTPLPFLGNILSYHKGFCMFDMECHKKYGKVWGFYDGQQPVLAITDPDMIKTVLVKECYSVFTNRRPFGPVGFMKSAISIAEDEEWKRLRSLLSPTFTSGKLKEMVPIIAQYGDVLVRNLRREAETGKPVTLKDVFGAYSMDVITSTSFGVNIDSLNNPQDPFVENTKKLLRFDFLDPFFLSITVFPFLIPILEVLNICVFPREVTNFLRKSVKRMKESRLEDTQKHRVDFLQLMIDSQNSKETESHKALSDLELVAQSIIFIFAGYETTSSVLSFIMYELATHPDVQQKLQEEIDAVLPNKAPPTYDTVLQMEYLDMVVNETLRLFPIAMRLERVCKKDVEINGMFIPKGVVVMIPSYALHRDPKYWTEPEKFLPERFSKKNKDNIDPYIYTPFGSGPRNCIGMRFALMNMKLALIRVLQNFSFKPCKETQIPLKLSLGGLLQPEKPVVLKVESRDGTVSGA", "assay": "CYP450 inhibition, pro-fluorescent probe substrate (3A4/7BQ)", "format": "in vitro ADME", "settings": "recombinant human CYP450, substrate 7-BQ; top concentration 5.00E-05; read-out: CYP3A47BQ"}, "[5]": {"molecular_target": "T1, CYP3A4", "assay": "CYP450 inhibition, Vivid Baculosomes (3A4/DBOMF)", "format": "in vitro ADME", "settings": "substrate DBOMF, top concentration 5.00E-05, read-out: CYP3A4DBOMF", "from_the_text": "The method uses recombinant human CYP450 to metabolize pro-fluorescent probe substrates to fluorescent products. IC50 values for the effect of test compounds on the metabolism of these probe substrates provides a measure of the potency of inhibition of individual CYP450 isoforms.\nThe described assays measure in vitro inhibitory effects (pIC50) of compounds at the human P450 isoforms (1A2, 2C8, 2C9, 2C19, 2D6, 3A4) expressed in recombinant microsomes. Pro-fluorescent probe substrates are metabolized to fluorescent products by the enzymes.\nFluorescence is measured in kinetic mode (1 read/min for 10 min) and the fluorescence rate is calculated. Data are normalized to controls: DMSO represents 0% effect (i.e. no inhibition), while 10 μM Miconazole is set to 100% effect (i.e. complete inhibition).\nInhibition of the fluorescent signal determined by P450 […] indicates antagonist activity of the compound and allows for the calculation of the compound plC50.\nCRCs of compounds are run on two different test occasions (n=2) by preparing serial dilutions from the same compound stock solution. Details of the solutions are outlined in Table 6:\nTest compound serial dilutions 1 to 3 were performed from a 10 mM stock solution in DMSO by Biomek FX to generate 10 point CRC. 100% DMSO was used for assay low controls. 10 mM (2 mM for 3A4/DBOMF, 2C8/DBOMF assay only) miconazole solution in DMSO was used as assay high controls. The final concentrations of the 10 point CRCs of test compounds in the assay plate were 5.00E-05; 1.67E-05; 5.56E-06; 1.85E-06; 6.17E-07; 2.06E-07; 6.86E-08; 2.29E-08; 7.62E-09 and 2.54E-09, respectively.\nThe CYP3A4 and CYP2C8 were assayed using the Vivid CYP3A4 Baculosomes, CYP2C8 Baculosomes and Vivid DBOMF Substrate. […]\n10 μl/well from compound plate was added and incubated for 10 min at 37° C. on a plate shaker. […] The plate was transferred into the fluorescent plate reader (EnVision, Wallac) immediately within 2 min and monitor fluorescence every minute for 10 (Excitation 485, Emission 535 and Mirror 505 FITC). […]\nThe inhibition effect was expressed as percentage. […]"}, "[6]": {"molecular_target": "CYP2C9 (Homo sapiens, UniProt P11712)", "sequence (P11712 whole entry)": "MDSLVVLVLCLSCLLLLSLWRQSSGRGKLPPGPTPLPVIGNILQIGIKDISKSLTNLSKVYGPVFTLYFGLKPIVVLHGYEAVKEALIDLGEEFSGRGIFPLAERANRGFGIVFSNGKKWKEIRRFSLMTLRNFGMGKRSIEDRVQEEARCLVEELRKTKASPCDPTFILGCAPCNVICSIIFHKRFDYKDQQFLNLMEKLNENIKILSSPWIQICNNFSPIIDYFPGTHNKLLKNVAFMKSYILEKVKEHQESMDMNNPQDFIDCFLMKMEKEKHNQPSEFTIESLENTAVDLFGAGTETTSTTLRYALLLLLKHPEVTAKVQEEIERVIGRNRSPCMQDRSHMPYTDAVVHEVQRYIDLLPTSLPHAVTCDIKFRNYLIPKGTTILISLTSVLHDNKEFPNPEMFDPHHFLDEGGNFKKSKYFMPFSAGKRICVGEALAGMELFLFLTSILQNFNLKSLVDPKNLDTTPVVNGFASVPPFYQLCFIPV", "assay": "CYP450 inhibition, pro-fluorescent probe substrate (2C9/FCA)", "format": "in vitro ADME", "settings": "recombinant human CYP450, substrate FCA; top concentration 5.00E-05"}, "[7]": {"molecular_target": "T2, human Kv3.1 channels (hKv3.1) (Homo sapiens, UniProt P48547)", "T2 construct": "expressed in transfected cells", "T2 sequence (P48547 1-511)": "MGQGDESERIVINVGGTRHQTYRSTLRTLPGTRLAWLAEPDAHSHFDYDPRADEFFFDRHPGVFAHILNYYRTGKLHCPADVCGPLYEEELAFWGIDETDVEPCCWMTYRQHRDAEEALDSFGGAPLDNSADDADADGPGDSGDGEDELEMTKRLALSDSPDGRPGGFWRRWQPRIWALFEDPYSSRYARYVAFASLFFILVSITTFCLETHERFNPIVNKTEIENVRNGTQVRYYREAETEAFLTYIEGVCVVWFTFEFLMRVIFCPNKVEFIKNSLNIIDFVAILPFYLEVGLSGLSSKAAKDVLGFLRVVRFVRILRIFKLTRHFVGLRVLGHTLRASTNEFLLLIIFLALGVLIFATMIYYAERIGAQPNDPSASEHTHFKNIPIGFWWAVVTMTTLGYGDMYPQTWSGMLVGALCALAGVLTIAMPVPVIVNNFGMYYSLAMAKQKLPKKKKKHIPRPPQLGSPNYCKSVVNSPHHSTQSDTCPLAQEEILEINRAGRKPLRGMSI", "assay": "Kv3.1 channel modulation, IonWorks Quattro planar array electrophysiology", "format": "cell-based", "settings": "HEK-293 cells expressing human Kv3.1; for EC50: read-out: Kv3.1 pEC50 (converted); for Kv3.1 max R %: normalised to maximum effect of 50 microM reference compound"}, "[8]": {"settings": "currents at −15 mV voltage step, normalised to 50 microM reference compound and vehicle"}},
  "note": "pIC50: −log10 of the molar value.",
  "data": [
    {"smiles": "COc1nc(Oc2ccc(C)c3c2C2(CC2)CO3)ccc1N1C(=O)NC(C)(C)C1=O", "note": "[Reference Example 2, reference compound]", "values": [
      {"measurement": "pIC50", "setting": "[1]", "result": "< 4.30"},
      {"measurement": "pIC50", "setting": "[2]", "result": 5.96},
      {"measurement": "pIC50", "setting": "[3]", "result": "< 4.30"},
      {"measurement": "pIC50", "setting": "[4]", "result": "< 4.30"},
      {"measurement": "pIC50", "setting": "[5]", "result": 4.99},
      {"measurement": "pIC50", "setting": "[6]", "result": 7.00},
      {"measurement": "EC50", "setting": "[7]; [8]", "result": 1, "unit": "µM"}
    ]},
    {"smiles": "Cc1ccc(Oc2ccc(N3C(=O)NC(C)(C)C3=O)c(N)n2)c2c1OCC21CC1", "note": "[Example 1, 3-[2-amino-6-(7-methylspiro[2H-benzofuran-3,1′-cyclopropane]-4-yl)oxy-3-pyridyl]-5,5-dimethyl-imidazolidine-2,4-dione]", "values": [
      {"measurement": "pIC50", "setting": "[1]", "result": "< 4.30"},
      {"measurement": "pIC50", "setting": "[2]", "result": "< 4.30"},
      {"measurement": "pIC50", "setting": "[3]", "result": "< 4.30"},
      {"measurement": "pIC50", "setting": "[4]", "result": "< 4.30"},
      {"measurement": "pIC50", "setting": "[5]", "result": "< 4.30"},
      {"measurement": "pIC50", "setting": "[6]", "result": 5.07},
      {"measurement": "Kv3.1 pEC50", "setting": "[7]; [8]", "result": 6.6},
      {"measurement": "EC50", "setting": "[7]; [8]", "result": 0.251, "unit": "µM"},
      {"measurement": "Kv3.1 max R %", "setting": "[7]", "result": 183, "unit": "%"}
    ]},
    {"smiles": "CC1(C)NC(=O)N(c2ccc(Oc3cccc(OC(F)(F)F)c3)nc2N)C1=O", "note": "[Example 9, 3-[2-amino-6-[3-(trifluoromethoxy)phenoxy]-3-pyridyl]-5,5-dimethyl-imidazolidine-2,4-dione]", "values": [
      {"measurement": "pIC50", "setting": "[1]", "result": "< 4.30"},
      {"measurement": "pIC50", "setting": "[2]", "result": 4.68},
      {"measurement": "pIC50", "setting": "[3]", "result": "< 4.30"},
      {"measurement": "pIC50", "setting": "[4]", "result": "< 4.30"},
      {"measurement": "pIC50", "setting": "[5]", "result": "< 4.30"},
      {"measurement": "pIC50", "setting": "[6]", "result": "< 4.30"},
      {"measurement": "EC50", "setting": "[7]; [8]", "result": 2.51, "unit": "µM"},
      {"measurement": "Kv3.1 max R %", "setting": "[7]", "result": 118, "unit": "%"}
    ]}
  ]
}
